Experimental data as given in PubChem BioAssay (NCI).
Where “and” joins values, the source holds several entries; their conditions need not be identical. Equal values may be shown once.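 How tested: cells in 96-well plates exposed to compound for 48 hours at five concentrations. The concentration for 50% growth inhibition is given as GI50. TGI: concentration producing complete growth inhibition.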

What was measured:
Experiment in all cases: inhibition of tumour cell growth, NCI panel, 48 h
HOP-92 NSCLC = tested on: HOP-92 NSCLC
BT-549 breast = tested on: BT-549 breast
786-0 renal = tested on: 786-0 renal
M14 melanoma = tested on: M14 melanoma
OVCAR-8 ovarian = tested on: OVCAR-8 ovarian
OVCAR-3 ovarian = tested on: OVCAR-3 ovarian
K-562 leukemia = tested on: K-562 leukemia
SR leukemia = tested on: SR leukemia
ACHN renal = tested on: ACHN renal
T-47D breast = tested on: T-47D breast

Row | Structure (SMILES) | GI50 (HOP-92 NSCLC) | TGI (HOP-92 NSCLC) | GI50 (BT-549 breast) | TGI (BT-549 breast) | GI50 (786-0 renal) | TGI (786-0 renal) | GI50 (M14 melanoma) | TGI (M14 melanoma) [µM] | GI50 (OVCAR-8 ovarian) | TGI (OVCAR-8 ovarian) [µM] | GI50 (OVCAR-3 ovarian) | TGI (OVCAR-3 ovarian) | GI50 (K-562 leukemia) | TGI (K-562 leukemia) [µM] | GI50 (SR leukemia) [µM] | TGI (SR leukemia) [µM] | GI50 (ACHN renal) | TGI (ACHN renal) [µM] | GI50 (T-47D breast) | TGI (T-47D breast)
1 | Cc1nc2cc(Nc3nc(Nc4ccc(F)cc4)nc(-c4ccc(Cl)cc4)n3)ccc2n1Cc1ccccc1 | 1.74 µM | 23.7 µM | 6.14 µM | 39.8 µM | 6.48 µM | 52.3 µM | 4.42 µM | > 100 | 3.93 µM | 22 | 7.91 µM | > 100 µM | 5.13 µM | > 100 | 2.88 | 9.55 | 3.89 µM | > 100 | 2.44 µM | 24.8 µM
2 | NC(=O)c1c(NC(=O)c2cccc(C(F)(F)F)c2)sc2c1CCC(=O)C2 | 0.985 µM | 3.47 µM | 0.352 µM | 9.08 µM | 1.94 µM | > 100 µM | 0.437 µM | 11.6 | 0.519 µM | > 100 | 0.364 µM | 1.34 µM | 0.124 µM |  | 0.424 | > 100 | 0.322 µM | 1.05 | 0.274 µM | 
3 | COc1ccc(-c2cn(-c3cc(OC)c(OC)c(OC)c3)c(=O)n2-c2ccccc2)cc1 | 11.6 µM | 36.9 µM | > 100 µM | > 100 µM | 38.9 µM | > 100 µM | > 100 µM | > 100 | > 100 µM | > 100 | 43.1 µM | > 100 µM | > 100 µM | > 100 | 50.1 | > 100 | > 100 µM | > 100 | 27.3 µM | > 100 µM
4 | COC12C=C/C(=C(/C(=O)OCc3csc(SC)n3)C(=O)CCCCCCCCC3(OC)C=C/C(=C(/C(=O)OCc4cnc(SC)s4)C(=O)CCCCCCCC1)O3)O2 (stereo not given) | 12.3 µM | 32.3 µM | 4.53 µM | 69.8 µM | 4.93 µM | 26.1 µM | 2.62 µM | > 100 | 2.08 µM | 32.4 | 2.74 µM | > 100 µM | 3.19 µM | > 100 | 2.05 | > 100 | 2.51 µM | 28.9 | 2.94 µM | > 100 µM
5 | C/C(N=NC(=S)N1CCCCCC1)=C1\C=CC=CN1O |  | 72.4 µM |  | > 100 µM |  | > 49.9 µM |  | 38.8 |  | > 49.4 |  | 11.8 µM |  | > 51.3 |  | > 100 |  | 67.6 |  | 77.7 µM
6 | CC(C)c1ccc2c(c1)c(SC(C)(C)C)c(CC(C)(C)C(=O)O)n2Cc1ccc(Cl)cc1 | 7.49 µM | 22.5 µM | 9.79 µM | 22.5 µM | 11.1 µM | 27.7 µM | 16.3 µM | 36.5 | 6.81 µM | 19.6 | 6.36 µM | 19.8 µM | 7.48 µM | 37.8 | 10.6 | 36.7 | 11.6 µM | 24.3 | 9.86 µM | 27.3 µM
7 | COc1ccc2c(c1)c(-c1cc(-c3cn(C)c4ccc(OC)cc34)[nH]n1)cn2C | 60.7 µM | > 100 µM | > 100 µM | > 100 µM | > 100 µM | > 100 µM | > 100 µM | > 100 | > 100 µM | > 100 | > 100 µM | > 100 µM | > 100 µM | > 100 | > 100 | > 100 | > 100 µM | > 100 | > 100 µM | > 100 µM
8 | CCCCCCCCCCCCNC(=O)[C@H]1CSC(c2ccsc2)N1 (stereo not given in full) | 1.01 µM | 2.02 µM | 0.797 µM | 1.58 µM | 0.916 µM | 1.65 µM | 0.855 µM | 1.63 | 1.11 µM | 2.26 | 0.995 µM | 1.81 µM | 1.02 µM | 2.04 | 0.882 | 2.07 | 0.938 µM | 1.75 | 0.976 µM | 2.02 µM
9 | COc1ccc2nc3cc(Cl)ccc3c(Nc3ccc(O)c(CN4CCCC4)c3)c2c1 | 3.92 µM | 16 µM | 14.5 µM | 28.1 µM | 1.83 µM | 3.5 µM | 1.89 µM | 3.54 | 2.01 µM | 4.87 | 3.54 µM | 15 µM | 1.99 µM | 6.44 | 0.534 | 3.3 | 1.74 µM | 3.18 | 2.18 µM | 6.46 µM
10 | CC(=O)c1c(Nc2ccc(F)c(F)c2F)[nH]c2c(F)cc(F)cc2c1=O | 0.116 µM | 0.466 µM | 0.335 µM | 5.76 µM | 0.368 µM | 15.1 µM | 0.352 µM | 4.06 | 0.365 µM | > 100 | 0.311 µM | 11.6 µM | 0.347 µM | > 100 | 0.45 | > 45.9 | 0.296 µM | > 26.3 | 0.25 µM | 
11 | Oc1cccc(-c2nc(N3CCOCC3)c3oc4ncccc4c3n2)c1 | 0.0237 µM and 0.0243 µM | 0.131 µM and 0.216 µM | 0.0515 µM and 0.036 µM | 1.18 µM and 1.15 µM | 0.231 µM and 0.246 µM | 1.67 µM and 1.28 µM | 0.127 µM and 0.152 µM |  | 0.238 µM and 0.193 µM | 6.75 | 0.164 µM and 0.213 µM | 0.811 µM and 3.24 µM | 1.35 µM and 2.18 µM | > 100 | 0.244 | 7.42 | 0.0878 µM and 0.164 µM |  | 0.212 µM and 0.192 µM | 1.34 µM and 0.814 µM
